{"source": "paper PMC5218480", "about": "(PLoS ONE, 2017)", "tested_on": "MV-4-11 cells", "assay": "Gene expression microarray analysis (Affymetrix PrimeView) and GSEA", "type": "cell-based, human", "parameters": "RFU PODN (11730768_x_at) / Fold change /veh PODN (11730768_x_at) / RFU LINC00158 (11744669_a_at) / Fold change /veh LINC00158 (11744669_a_at) / RFU DUSP10 (11751237_a_at) / Fold change /veh DUSP10 (11751237_a_at) / RFU ID3 (11757404_x_at) / Fold change /veh ID3 (11757404_x_at) / RFU PLEKHG5 (11737974_s_at) / Fold change /veh PLEKHG5 (11737974_s_at) / RFU LRRC4B (11730491_at) / Fold change /veh LRRC4B (11730491_at) / RFU GIMAP4 (11747438_a_at) / Fold change /veh GIMAP4 (11747438_a_at) / RFU KRT8 (11758183_x_at) / Fold change /veh KRT8 (11758183_x_at) / RFU CNN1 (11734310_a_at) / Fold change /veh CNN1 (11734310_a_at) / RFU VPS37D (11726825_at) / Fold change /veh VPS37D (11726825_at) / RFU C10orf10 (11716522_x_at) / Fold change /veh C10orf10 (11716522_x_at) / RFU KIR2DL2 /// KIR2DL4 /// KIR2DL5A /// KIR2DL5B /// KIR2DS1 /// KIR2DS2 /// KIR2DS3 /// KIR2DS4 /// KIR3DL3 /// KIR3DL3 /// KIR3DS1 (11738374_at) / Fold change /veh KIR2DL2 /// KIR2DL4 /// KIR2DL5A /// KIR2DL5B /// KIR2DS1 /// KIR2DS2 /// KIR2DS3 /// KIR2DS4 /// KIR3DL3 /// KIR3DL3 /// KIR3DS1 (11738374_at) / RFU C1QL1 (11718748_at) / Fold change /veh C1QL1 (11718748_at) / RFU TMPRSS4 (11747572_a_at) / Fold change /veh TMPRSS4 (11747572_a_at) / RFU HAMP (11756126_x_at) / Fold change /veh HAMP (11756126_x_at) / RFU RNFT2 (11725882_a_at) / Fold change /veh RNFT2 (11725882_a_at) / RFU NR4A2 (11747474_a_at) / Fold change /veh NR4A2 (11747474_a_at) / RFU ABCC12 (11746883_a_at) / Fold change /veh ABCC12 (11746883_a_at) / RFU TMEM136 (11760407_x_at) / Fold change /veh TMEM136 (11760407_x_at) / RFU CLDN22 /// WWC2 (11732394_at) / Fold change /veh CLDN22 /// WWC2 (11732394_at) / RFU HLA-DPB1 (11760878_x_at) / Fold change /veh HLA-DPB1 (11760878_x_at) / RFU SPINT1 (11716480_a_at) / Fold change /veh SPINT1 (11716480_a_at) / RFU GAP43 (11754022_s_at) / Fold change /veh GAP43 (11754022_s_at) / RFU A4GNT (11735810_at) / Fold change /veh A4GNT (11735810_at) / RFU PRB3 (11715151_x_at) / Fold change /veh PRB3 (11715151_x_at) / RFU TUBB4B (11761932_at) / Fold change /veh TUBB4B (11761932_at) / RFU CAPN14 (11732068_a_at) / Fold change /veh CAPN14 (11732068_a_at) / RFU TMCC2 (11721928_a_at) / Fold change /veh TMCC2 (11721928_a_at) / RFU IRGQ (11745062_a_at) / Fold change /veh IRGQ (11745062_a_at) / RFU FAM174B (11720279_a_at) / Fold change /veh FAM174B (11720279_a_at) / RFU TMPRSS4 (11748680_a_at) / Fold change /veh TMPRSS4 (11748680_a_at) / RFU FAM212B (11763350_a_at) / Fold change /veh FAM212B (11763350_a_at) / RFU PLEKHG5 (11743358_a_at) / Fold change /veh PLEKHG5 (11743358_a_at) / RFU ZSCAN30 (11745921_a_at) / Fold change /veh ZSCAN30 (11745921_a_at) / RFU CMKLR1 (11741424_a_at) / Fold change /veh CMKLR1 (11741424_a_at) / RFU LOC101060620 /// MAPK8IP1 (11723275_at) / Fold change /veh LOC101060620 /// MAPK8IP1 (11723275_at) / RFU SPTSSB (11747773_x_at) / Fold change /veh SPTSSB (11747773_x_at) / RFU PRSS12 (11739890_at) / Fold change /veh PRSS12 (11739890_at) / RFU BIN1 (11741810_x_at) / Fold change /veh BIN1 (11741810_x_at) / RFU WNT11 (11732464_a_at) / Fold change /veh WNT11 (11732464_a_at) / RFU C10orf10 (11716521_a_at) / Fold change /veh C10orf10 (11716521_a_at) / RFU C5orf56 (11738089_at) / Fold change /veh C5orf56 (11738089_at) / RFU CYB561 (11721691_x_at) / Fold change /veh CYB561 (11721691_x_at) / RFU ANKRD19P (11752326_a_at) / Fold change /veh ANKRD19P (11752326_a_at) / RFU OR2T12 /// OR2T33 /// OR2T8 (11738714_s_at) / Fold change /veh OR2T12 /// OR2T33 /// OR2T8 (11738714_s_at) / RFU VCAN (11748164_a_at) / Fold change /veh VCAN (11748164_a_at) / RFU JSRP1 (11732532_at) / Fold change /veh JSRP1 (11732532_at) / RFU KRTAP10-11 (11738290_x_at) / Fold change /veh KRTAP10-11 (11738290_x_at) / RFU MYO3A (11730013_a_at) / Fold change /veh MYO3A (11730013_a_at) / RFU EBF3 (11725865_a_at) / Fold change /veh EBF3 (11725865_a_at) / RFU CAMK2N1 (11719241_x_at) / Fold change /veh CAMK2N1 (11719241_x_at) / RFU C5orf56 (11738088_a_at) / Fold change /veh C5orf56 (11738088_a_at) / RFU OLFML3 (11715873_a_at) / Fold change /veh OLFML3 (11715873_a_at) / RFU LOC100653217 /// NTM (11731650_a_at) / Fold change /veh LOC100653217 /// NTM (11731650_a_at) / RFU MAPK11 (11762145_a_at) / Fold change /veh MAPK11 (11762145_a_at) / RFU FIZ1 (11724087_x_at) / Fold change /veh FIZ1 (11724087_x_at) / RFU OASL (11726364_x_at) / Fold change /veh OASL (11726364_x_at) / RFU SOX15 (11748057_x_at) / Fold change /veh SOX15 (11748057_x_at) / RFU CD79A (11719716_a_at) / Fold change /veh CD79A (11719716_a_at) / RFU HIST1H1D (11736915_at) / Fold change /veh HIST1H1D (11736915_at) / RFU CASKIN2 (11723855_a_at) / Fold change /veh CASKIN2 (11723855_a_at) / RFU LOC730098 (11760151_x_at) / Fold change /veh LOC730098 (11760151_x_at) / RFU OR4N2 (11742367_at) / Fold change /veh OR4N2 (11742367_at) / RFU PRRT2 (11749266_a_at) / Fold change /veh PRRT2 (11749266_a_at) / RFU SNX32 (11753110_a_at) / Fold change /veh SNX32 (11753110_a_at) / RFU CDHR5 (11726645_a_at) / Fold change /veh CDHR5 (11726645_a_at) / RFU RCAN1 (11760418_a_at) / Fold change /veh RCAN1 (11760418_a_at) / RFU FAM167A (11723789_a_at) / Fold change /veh FAM167A (11723789_a_at) / RFU FAM26E (11764081_at) / Fold change /veh FAM26E (11764081_at) / RFU ISYNA1 (11749810_s_at) / Fold change /veh ISYNA1 (11749810_s_at) / RFU ACY1 (11761880_at) / Fold change /veh ACY1 (11761880_at) / RFU 11764098_at / Fold change /veh 11764098_at / RFU SAMD14 (11745864_x_at) / Fold change /veh SAMD14 (11745864_x_at) / RFU NPB (11741838_a_at) / Fold change /veh NPB (11741838_a_at) / RFU TMPRSS6 (11731388_a_at) / Fold change /veh TMPRSS6 (11731388_a_at) / RFU KRTAP10-2 (11738614_at) / Fold change /veh KRTAP10-2 (11738614_at) / RFU ARHGAP8 /// PRR5-ARHGAP8 (11727945_x_at) / Fold change /veh ARHGAP8 /// PRR5-ARHGAP8 (11727945_x_at) / RFU KRTAP5-7 /// NADSYN1 (11734609_at) / Fold change /veh KRTAP5-7 /// NADSYN1 (11734609_at) / RFU RASL12 (11751679_a_at) / Fold change /veh RASL12 (11751679_a_at) / RFU CDKN2B (11736163_a_at) / Fold change /veh CDKN2B (11736163_a_at) / RFU PRF1 (11729649_at) / Fold change /veh PRF1 (11729649_at) / RFU, ZNF638 /// ZNF638-IT1 / Fold change vs veh, ZNF638 /// ZNF638-IT1 / RFU, PANK3 / Fold change vs veh, PANK3 / RFU, SH3YL1 / Fold change vs veh, SH3YL1 / RFU, ZEB2 / Fold change vs veh, ZEB2 / RFU, NRIP1 / Fold change vs veh, NRIP1 / RFU, PTTG1IP / Fold change vs veh, PTTG1IP / RFU, CAPN2 / Fold change vs veh, CAPN2 / RFU, MED14 / Fold change vs veh, MED14 / RFU, SNORA58 / Fold change vs veh, SNORA58 / RFU, C1orf63 / Fold change vs veh, C1orf63 / RFU, LRRFIP1 / Fold change vs veh, LRRFIP1 / RFU, NDUFAF7 / Fold change vs veh, NDUFAF7 / RFU, SLC12A2 / Fold change vs veh, SLC12A2 / RFU, IBTK / Fold change vs veh, IBTK / RFU, ESF1 / Fold change vs veh, ESF1 / Fold change vs veh, TMEM50B / RFU, TAOK1 / Fold change vs veh, TAOK1 / RFU, ACBD3 / Fold change vs veh, ACBD3 / RFU, TMA16 / Fold change vs veh, TMA16 / RFU, RWDD3 / Fold change vs veh, RWDD3 / RFU, BCAT1 / Fold change vs veh, BCAT1 / RFU, EDEM3 / Fold change vs veh, EDEM3 / RFU, TMEM33 / Fold change vs veh, TMEM33 / RFU, WDR75 / Fold change vs veh, WDR75 / RFU, AHCTF1 / Fold change vs veh, AHCTF1 / RFU, TFRC / Fold change vs veh, TFRC / RFU, ZDHHC17 / Fold change vs veh, ZDHHC17 / RFU, NOM1 / Fold change vs veh, NOM1 / RFU, ARL8B / Fold change vs veh, ARL8B / RFU, ZBTB11 / Fold change vs veh, ZBTB11 / RFU, TAMM41 / Fold change vs veh, TAMM41 / RFU, KIAA1704 /// LOC100996395 / Fold change vs veh, KIAA1704 /// LOC100996395 / RFU, ING1 / Fold change vs veh, ING1 / RFU, TRMT61B / Fold change vs veh, TRMT61B / RFU, FUBP3 / Fold change vs veh, FUBP3 / RFU, TP53 / Fold change vs veh, TP53 / RFU, TNKS2 / Fold change vs veh, TNKS2 / RFU, ZFP14 / Fold change vs veh, ZFP14 / RFU, ACTR2 / Fold change vs veh, ACTR2 / RFU, PPP3R1 / Fold change vs veh, PPP3R1 / RFU, PIK3R1 / Fold change vs veh, PIK3R1 / RFU, HNRNPA1 / Fold change vs veh, HNRNPA1 / RFU, RNF170 / Fold change vs veh, RNF170 / RFU, ZNF28 / Fold change vs veh, ZNF28 / RFU, RNGTT / Fold change vs veh, RNGTT / RFU, OGT / Fold change vs veh, OGT / RFU, BRD1 / Fold change vs veh, BRD1 / RFU, MARS / Fold change vs veh, MARS / RFU, ZNF655 / Fold change vs veh, ZNF655 / RFU, FAHD1 / Fold change vs veh, FAHD1 / RFU, BDP1 / Fold change vs veh, BDP1 / RFU, LRRCC1 / Fold change vs veh, LRRCC1 / RFU, ARID1A / Fold change vs veh, ARID1A / RFU, ZNF146 / Fold change vs veh, ZNF146 / RFU, ZNF330 / Fold change vs veh, ZNF330 / RFU, GPN3 / Fold change vs veh, GPN3 / RFU, C9orf123 / Fold change vs veh, C9orf123 / RFU, N4BP2L2 / Fold change vs veh, N4BP2L2 / RFU, ARFIP1 / Fold change vs veh, ARFIP1 / RFU, FAM179B / Fold change vs veh, FAM179B / RFU, BCL10 / Fold change vs veh, BCL10 / RFU, UHRF1BP1L / Fold change vs veh, UHRF1BP1L / RFU, BET1 / Fold change vs veh, BET1 / RFU, CNOT2 / Fold change vs veh, CNOT2 / RFU, ZNF268 / Fold change vs veh, ZNF268 / Fold change vs veh, ZNF507 / RFU, DGCR2 / Fold change vs veh, DGCR2 / RFU, WDSUB1 / Fold change vs veh, WDSUB1 / Fold change vs veh, HSP90B1 /// MIR3652 / RFU, ADSS / Fold change vs veh, ADSS / RFU, GK / Fold change vs veh, GK / RFU, ZNF148 / Fold change vs veh, ZNF148 / RFU, TAF9 / Fold change vs veh, TAF9 / RFU, SLC1A5 / Fold change vs veh, SLC1A5 / RFU, SLMO2 / Fold change vs veh, SLMO2 / RFU, ABCC4 / Fold change vs veh, ABCC4 / RFU, LOC101060439 /// RAP1B / Fold change vs veh, LOC101060439 /// RAP1B / RFU, RFX7 / Fold change vs veh, RFX7 / RFU, GTPBP10 / Fold change vs veh, GTPBP10 / RFU, CNEP1R1 / Fold change vs veh, CNEP1R1 / RFU, BIVM-ERCC5 /// ERCC5 / Fold change vs veh, BIVM-ERCC5 /// ERCC5 / RFU, ILF3 / Fold change vs veh, ILF3 / RFU 11762660_at / Fold change /veh 11762660_at / RFU VCAN (11757783_s_at) / Fold change /veh VCAN (11757783_s_at) / RFU DDX43 (11728927_at) / Fold change /veh DDX43 (11728927_at) / RFU KRT8 (11758188_x_at) / Fold change /veh KRT8 (11758188_x_at) / RFU NKD1 (11759106_at) / Fold change /veh NKD1 (11759106_at) / RFU SRD5A1 (11742802_a_at) / Fold change /veh SRD5A1 (11742802_a_at) / RFU TPSAB1 /// TPSB2 (11721975_s_at) / Fold change /veh TPSAB1 /// TPSB2 (11721975_s_at) / RFU GSTM3 (11746129_a_at) / Fold change /veh GSTM3 (11746129_a_at) / RFU IL23R (11737362_x_at) / Fold change /veh IL23R (11737362_x_at) / RFU TMEM51 (11727254_a_at) / Fold change /veh TMEM51 (11727254_a_at) / RFU PIWIL2 (11732686_x_at) / Fold change /veh PIWIL2 (11732686_x_at) / RFU ORM1 (11744905_x_at) / Fold change /veh ORM1 (11744905_x_at) / RFU CCDC152 (11743942_at) / Fold change /veh CCDC152 (11743942_at) / RFU ECM1 (11717891_a_at) / Fold change /veh ECM1 (11717891_a_at) / RFU IL23R (11748794_a_at) / Fold change /veh IL23R (11748794_a_at) / RFU TNFAIP8L3 (11732012_x_at) / Fold change /veh TNFAIP8L3 (11732012_x_at) / RFU MBOAT4 (11741988_at) / Fold change /veh MBOAT4 (11741988_at) / RFU 11764193_at / Fold change /veh 11764193_at / RFU TMEM53 (11763286_at) / Fold change /veh TMEM53 (11763286_at) / RFU MAGEB2 (11727129_at) / Fold change /veh MAGEB2 (11727129_at) / RFU TMEM200A (11744735_a_at) / Fold change /veh TMEM200A (11744735_a_at) / RFU CCDC152 (11751479_a_at) / Fold change /veh CCDC152 (11751479_a_at) / RFU FAM211A (11726209_a_at) / Fold change /veh FAM211A (11726209_a_at) / RFU RGS16 (11746705_a_at) / Fold change /veh RGS16 (11746705_a_at) / RFU VCAN (11755009_s_at) / Fold change /veh VCAN (11755009_s_at) / RFU RHOB (11743442_s_at) / Fold change /veh RHOB (11743442_s_at) / RFU RGS16 (11720943_a_at) / Fold change /veh RGS16 (11720943_a_at) / RFU RGS16 (11720944_at) / Fold change /veh RGS16 (11720944_at) / RFU, VPS4B / Fold change vs veh, VPS4B / RFU, CREB1 / Fold change vs veh, CREB1 / RFU, DNAJC13 / Fold change vs veh, DNAJC13 / RFU, GNAQ / Fold change vs veh, GNAQ / RFU, CDK5R1 / Fold change vs veh, CDK5R1 / RFU, ZRANB3 / Fold change vs veh, ZRANB3 / RFU, CUL4A / Fold change vs veh, CUL4A / RFU, CCNY / Fold change vs veh, CCNY / RFU, UFL1 / Fold change vs veh, UFL1 / RFU, COG3 / Fold change vs veh, COG3 / RFU, DIAPH2 / Fold change vs veh, DIAPH2 / RFU, SKA2 / Fold change vs veh, SKA2 / RFU, AFF3 / Fold change vs veh, AFF3 / RFU, LMF1 / Fold change vs veh, LMF1 / RFU, IPO11 / Fold change vs veh, IPO11 / RFU, DFFB / Fold change vs veh, DFFB / RFU, FOXP1 / Fold change vs veh, FOXP1 / RFU, CARD8 / Fold change vs veh, CARD8 / RFU, STRN3 / Fold change vs veh, STRN3 / RFU, ADK / Fold change vs veh, ADK / RFU, RASSF2 / Fold change vs veh, RASSF2 / RFU, WIPF1 / Fold change vs veh, WIPF1 / RFU, LARP1B / Fold change vs veh, LARP1B / RFU, RASA1 / Fold change vs veh, RASA1 / RFU, RB1 / Fold change vs veh, RB1 / RFU, PPFIA1 / Fold change vs veh, PPFIA1 / RFU, MAT2A / Fold change vs veh, MAT2A / RFU, CCT5 / Fold change vs veh, CCT5 / RFU, WDR92 / Fold change vs veh, WDR92 / RFU, CUX1 / Fold change vs veh, CUX1 / RFU, TTC7A / Fold change vs veh, TTC7A / RFU, TMEM135 / Fold change vs veh, TMEM135 / RFU, DEPTOR / Fold change vs veh, DEPTOR / RFU, CPM / Fold change vs veh, CPM / RFU, DNAJB6 / Fold change vs veh, DNAJB6 / RFU, CACNA2D3 / Fold change vs veh, CACNA2D3 / RFU, DTX4 / Fold change vs veh, DTX4 / RFU, TFCP2 / Fold change vs veh, TFCP2 / RFU, GMCL1 /// GMCL1P1 / Fold change vs veh, GMCL1 /// GMCL1P1 / RFU, AEBP2 / Fold change vs veh, AEBP2 / RFU, SNHG1 /// SNORD22 /// SNORD25 /// SNORD26 /// SNORD27 /// SNORD28 /// SNORD29 /// SNORD31 / Fold change vs veh, SNHG1 /// SNORD22 /// SNORD25 /// SNORD26 /// SNORD27 /// SNORD28 /// SNORD29 /// SNORD31 / Fold change (Aza/veh), C12orf56 (ProbeSet 11735607_a_at) / Fold change (ACY-1035/veh), C12orf56 (ProbeSet 11735607_a_at) / Fold change (Aza/veh), FGFR1OP (ProbeSet 11751329_s_at) / Fold change (ACY-1035/veh), FGFR1OP (ProbeSet 11751329_s_at) / Fold change (Aza/veh), VPS36 (ProbeSet 11739960_a_at) / Fold change (ACY-1035/veh), VPS36 (ProbeSet 11739960_a_at) / RFU SYPL1 (11715823_x_at) / Fold change /veh SYPL1 (11715823_x_at) / RFU IGFBP7 (11715501_s_at) / Fold change /veh IGFBP7 (11715501_s_at) / RFU REEP3 (11722064_at) / Fold change /veh REEP3 (11722064_at) / RFU IGLL1 (11728026_x_at) / Fold change /veh IGLL1 (11728026_x_at): dose or concentration left out as unconfirmed", "settings": "MV-4-11 cells, 48 hours", "data": [{"smiles": "Nc1ncn([C@@H]2O[C@H](CO)[C@@H](O)[C@H]2O)c(=O)n1", "note": "[azacitidine]", "values": [{"measurement": "RFU ISYNA1 (11749810_s_at)", "result": 23.56, "unit": "RFU"}]}]}
